Reference: patent US5254726A, “No-carrier-added (NCA) aryl (18E) fluorides via the nucleophilic aromatic substitution of electron rich aromatic rings” (priority 1991, dated 1993)
Entries after “also recorded” stand apart in the source; their conditions may differ. Like-named read-outs stand apart in the source and are kept apart here.

Legend:
[1] = test system: adrenergic nerve terminals; details: cited from earlier work; for neuronal uptake and storage: literature
[2] = test system: dog heart; details: Wieland et al. 1990, Rosenspire et al. 1989; cited from earlier work
[3] = test system: human heart; details: Schwaiger et al. 1990, Kopin 1990; cited from earlier work
[4] = literature; cited from earlier work
[5] = test system: dopamine β-hydroxylase; format: biochemical; details: pH 5.7, 30° C.; for product formed by dopamine β-hydroxylase: substrate incubation, chiral HPLC
Protocol: Two enzyme incubations, with dopamine and 6-fluorodopamine, respectively, were performed simultaneously, as follows:
12(a) Dopamine Hydroxylation. A mixture of 0.5 mg of dopamine, potassium phosphate buffer (0.3 mL, pH 5.7), 0.5M ascorbic acid (0.02 mL, pH 5.7), 1M sodium formate (0.05 mL), and dopamine β-hydroxylase solution (0.05 mL) was stirred in a closed vial at 30° C. The cap was removed and the vial was shaken periodically. An aliquot (ca. 1 μL) was withdrawn and subjected to chiral HPLC analysis as the reaction progressed. HPLC conditions were as follows: Crownpak CR (+) columns, 15×0.46 cm, 254 nm, 0.02M HClO4, 0.7 mL/min.
12(b) 6-Fluorodopamine Hydroxylation. The same procedure was used as described in 12(a), except 0.4 mg of 6-fluorodopamine, kindly provided by Dr. Kenneth Kirk at the National Institutes of Health, was used as a substrate.
Radiat. Isot., 41, 463 (1990) the disclosure of which is incorporated by reference herein, for [^11 C]octopamine enantiomers when a Crownpak CR(+) HPLC column was used.

[6] = test system: dopamine β-hydroxylase; details: Levin et al. 1960; Goldstein et al. 1962; cited from earlier work
[7] = tracers administered in vivo; Goldstein et al. 1990, Mislankar et al. 1988; cited from earlier work
[8] = test system: vesicular transporter; details: Matthaei et al. 1988; cited from earlier work
[9] = test system: baboon mycocardium (left ventricular wall and septum); assay: PET study of baboon heart after injection of racemic 6-[^18 F]FNE; format: in vivo, baboon (Papio anubis)
Protocol: (§1) FIG. 8 is a time-activity curve for F-18 in the baboon mycocardium (left ventricular wall and septum) after injection of 5 mCi of racemic 6-[^18 F]FNE. FIG. 9 is a graph showing plasma clearance of F-18 in the baboon after injection of racemic 6-[^18 F]FNE. […] Radioactivity remained at 0.032% of the peak activity by 120 minutes post injection. The ratio of myocardium to plasma was 7 at 5 minutes and 11.2 at 135 minutes. The experiment was carried out as follows:
(§2) Adult female baboons were anesthetized and prepared for PET studies as described by Dewey et al., Synapse, 5, 213 (1990) the description of which is incorporated by reference herein. A solution of racemic 6-[^18 F]FNE (5 mCi, 0.4 μg) in 3 mL of saline was injected intravenously. Scanning was performed for 140 minutes in a Computer Technology Imaging (CTI) positron tomograph (model 931-08/12; 15 slice, 6.5-mm slice thickness, full width at half maximum (FWHM) with an in-plane resolution of 6.0×6.0 mm (FWHM). The following scanning protocol was used: ten 30-s scans, followed by five 60-s scans, followed by ten 5-minute scans, followed by eight 10-minute scans. In every case, an initial transmission scan was performed 2.0 minutes prior to radiotracer injection in order to determine the proper position of the animal in the gantry. Upon completion of this scan, adjustments in position were made as necessary and a regular transmission scan (10 minutes) was performed in order to correct for the attenuation of the annihilation photons. The tomograph was cross calibrated with the well-counter used for the measurement of radioactivity in the plasma samples. A rectilinear scan was performed by placing the baboon's head in the gantry and moving through the rostral caudal extent of the animal (10-mm increments) to include the bladder at the most caudal level. Scanning was performed for 1.5 minutes at each position. Vital signs including heart and respiratory rate were monitored and recorded throughout the length of the study.
The time-activity curve for F-18 after the injection of 6-[^18 F]FNE was generated from a region of interest over the left ventricular wall and the septum. Immediately following completion of the dynamic acquisition, a rectilinear scan (qualitative) was performed beginning at the head and continuing throughout the rostral-caudal extent of the trunk.

[10] = Plasma/blood clearance of F-18 in the baboon; format: in vivo, baboon (Papio anubis); details: racemic, 5 mCi i.v.
Protocol: as §1
Adult female baboons were anesthetized and prepared for PET studies as described by Dewey et al., Synapse, 5, 213 (1990) the description of which is incorporated by reference herein. A solution of racemic 6-[^18 F]FNE (5 mCi, 0.4 μg) in 3 mL of saline was injected intravenously. […] The tomograph was cross calibrated with the well-counter used for the measurement of radioactivity in the plasma samples. […] Vital signs including heart and respiratory rate were monitored and recorded throughout the length of the study.

[11] = parameters: species or system baboon (Papio anubis); details: in vivo
Protocol: as §2, with “A rectilinear scan was performed by placing the baboon's head in the gantry and moving through the rostral caudal extent of the animal (10-mm increments) to include the bladder at the most caudal level. Scanning was performed for 1.5 minutes at each position.” left out, “study. […]” for “study.”

[12] = Vital signs including heart and respiratory rate during PET study; format: in vivo, baboon (Papio anubis); details: at any time during the study; 5 mCi, 0.4 μg i.v.
Protocol: as §2, with “A rectilinear scan was performed by placing the baboon's head in the gantry and moving through the rostral caudal extent of the animal (10-mm increments) to include the bladder at the most caudal level. Scanning was performed for 1.5 minutes at each position.” left out, “study. […]” for “study.”

C[C@H](N[11CH3])[C@H](O)c1cccc(O)c1 [[^11 C]m-hydroxyephedrine]
neuronal uptake and storage [1]: share the same uptake and storage mechanisms as norepinephrine | images of the neuronal distribution [2]: excellent images | images of the neuronal distribution [3]: excellent images | metabolic stability [4]: metabolically stable

NCCc1ccc(O)c(O)c1 [dopamine]
time to appearance of (-)-NE peak ([5]; dopamine as substrate): less than 1 hour | product formed by dopamine β-hydroxylase [5]: (+)-NE was not observed | enantiospecific conversion by dopamine β-hydroxylase [6]: enantiospecifically convert dopamine to (-)-norepinephrine

NCCc1cc(O)c(O)cc1[18F] [[^18 F]dopamine, 6-[^18 F]fluorodopamine]
vasoactivity / hemodynamic effects [7]: hemodynamic effects

NC[C@H](O)c1ccc(O)c(O)c1 [norepinephrine]
stereoselectivity of neuronal uptake ([1]; Matthaei et al. 1988): not stereoselective | stereoselectivity for vesicular transporter [8]: only the levorotatory enantiomer serves as a substrate for the vesicular transporter

NCCc1cc(O)c(O)cc1F [6-fluorodopamine]
product formed by dopamine β-hydroxylase [5]: a new HPLC peak at 18 minutes appeared | neuronal uptake and storage [1]: share the same presynaptic mechanisms for the uptake, storage, and synthesis as the parent molecules

NCC(O)c1cc(O)c(O)cc1F (racemic) [6-fluoronorepinephrine]
neuronal uptake and storage [1]: share the same presynaptic mechanisms for the uptake, storage, and synthesis as the parent molecules | neuronal uptake and storage ([1]; listed as racemic 6-fluoronorepinephrine): taken up and stored by adrenergic nerve terminals

C[C@H](N)[C@H](O)c1cc(O)ccc1[18F] [[^18 F]fluorometaraminol]
neuronal uptake and storage [1]: share the same uptake and storage mechanisms as norepinephrine | images of the neuronal distribution [2]: excellent images | images of the neuronal distribution [3]: excellent images | vasoactivity / hemodynamic effects [7]: hemodynamic effects | metabolic stability [4]: metabolically stable

NCC(O)c1cc(O)c(O)cc1[18F] (racemic) [racemic 6-[^18 F]FNE, 6-[^18 F]fluoronorepinephrine]
peak concentration of F-18 in myocardium ([9]; 10 minutes post injection, 5 mCi racemic, i.v.): 0.042 % of the injected does/cc | ratio of myocardium to plasma ([9]; at 5 minutes, 5 mCi i.v.): 7 | ratio of myocardium to plasma ([9]; at 135 minutes, 5 mCi i.v.): 11.2 | uptake and retention/clearance of F-18 in the baboon heart ([9]; racemic, 5 mCi i.v.): high uptake and retention; also recorded: high uptake and a slow clearance | clearance from blood [10]: rapid clearance from blood | distribution of radioactivity [11]: Radioactivity was distributed in the parotid glands, the heart, liver, and bladder | change in vital signs [12]: no change in vital signs
